This note sets out measurements from BindingDB's records for doi:10.1111/j.1432-1033.1976.tb10435.x (Gesellschaft Fur Molekularbiolische Forschung Mbh, 1976).

Chain of Isoleucine--tRNA ligase (P00956 whole entry): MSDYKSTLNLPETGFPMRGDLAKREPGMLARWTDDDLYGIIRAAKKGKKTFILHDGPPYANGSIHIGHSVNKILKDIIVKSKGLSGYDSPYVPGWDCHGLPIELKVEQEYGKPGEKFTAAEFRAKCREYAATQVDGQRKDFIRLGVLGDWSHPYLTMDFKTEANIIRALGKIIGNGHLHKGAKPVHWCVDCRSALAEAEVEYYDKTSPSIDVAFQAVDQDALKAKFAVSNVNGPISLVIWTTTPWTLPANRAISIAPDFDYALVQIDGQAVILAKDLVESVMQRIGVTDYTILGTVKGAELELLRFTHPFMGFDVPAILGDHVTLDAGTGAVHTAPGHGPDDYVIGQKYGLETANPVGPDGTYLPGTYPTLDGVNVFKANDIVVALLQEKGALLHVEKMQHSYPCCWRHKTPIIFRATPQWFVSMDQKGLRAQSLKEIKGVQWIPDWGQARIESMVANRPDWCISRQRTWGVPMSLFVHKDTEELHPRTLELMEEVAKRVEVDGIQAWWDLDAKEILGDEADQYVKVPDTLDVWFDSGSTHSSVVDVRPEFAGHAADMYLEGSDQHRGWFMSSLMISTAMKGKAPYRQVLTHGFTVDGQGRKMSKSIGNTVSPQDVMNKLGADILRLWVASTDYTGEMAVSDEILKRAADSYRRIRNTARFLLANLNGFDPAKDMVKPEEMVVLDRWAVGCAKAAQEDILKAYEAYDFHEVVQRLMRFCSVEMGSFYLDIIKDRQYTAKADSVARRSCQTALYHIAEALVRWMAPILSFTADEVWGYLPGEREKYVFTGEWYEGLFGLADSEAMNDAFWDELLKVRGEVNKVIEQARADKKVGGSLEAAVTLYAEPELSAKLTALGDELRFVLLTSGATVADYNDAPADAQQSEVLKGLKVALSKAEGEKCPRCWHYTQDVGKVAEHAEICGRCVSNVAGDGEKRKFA

The experiment addresses Isoleucine--tRNA ligase (Escherichia coli (strain K12), UniProt P00956). Nature of the experiment: Competitive Ligand Binding Assay. To be noted: pH 7.5; 20 °C. An excerpt: Utilizing an analytical ultracentrifuge, the binding constants of various amino acids and isoleucine analogues to IleRS were estimated from their competition with radioactively labeled L-isoleucine.
`CCC[C@@H](CC)C(N)C(=O)O` (mixture of isomers) [(3R)-2-amino-3-ethylhexanoic acid] registered a Ki of 5 mM.

Turning to `CCC(C)(C)[C@H](N)C(=O)O` (racemic) [2-amino-3,3-dimethylpentanoic acid], the affinity corresponds to a Ki of 1.25 mM. This Ki lies about 4-fold lower than the previous one.

The compound `CC(C)(C)CC(N)C(=O)O` (racemic) [2-amino-4,4-dimethylpentanoic acid] came in with a Ki of 12.5 mM.

`CC(C)CCC(N)C(=O)O` (racemic) [2-amino-5-methylhexanoic acid]: the inhibition constant Ki is 3.33 mM.

The compound `CCC(CC)C(N)C(=O)O` (stereo unspecified) [2-amino-3-ethylpentanoic acid] came in with a Ki of 0.53 mM.

`CCC(CC)[C@H](N)C(=O)O` [(2S)-2-amino-3-ethylpentanoic acid] showed a Ki of 0.56 mM.

`CC(C)[C@H](N)CO` [(2S)-2-amino-3-methylbutan-1-ol] returned a Ki of 14.3 mM.

`CCC(C)[C@H](N)CO` (stereo partly drawn) [(2S)-2-amino-3-methylpentan-1-ol] came in with a Ki of 8.33 mM.

With `CC(C)(C)C[C@H](N)C(=O)O` [(2S)-2-amino-4,4-dimethylpentanoic acid], the Ki was found to be 12.5 mM. This Ki is about 1.5-fold higher than that of the compound before.

Compound `CC(C)CC[C@H](N)C(=O)O` [(2S)-2-amino-5-methylhexanoic acid] yielded a Ki of 2.5 mM.

Turning to `CCCCC[C@H](N)C(=O)O` [(2S)-2-aminoheptanoic acid], the affinity, expressed as Ki, was 16.7 mM.

In turn, `CC(C)[C@@H](C)[C@H](N)C(=O)O` [(2S,3R)-2-amino-3,4-dimethylpentanoic acid] yielded a Ki of 5 mM.

`CC(C)[C@H](C)[C@H](N)C(=O)O` [(2S,3S)-2-amino-3,4-dimethylpentanoic acid] gave a Ki of 0.0455 mM.

Compound `CCC[C@H](C)[C@H](N)C(=O)O` [(2S,3S)-2-amino-3-methylhexanoic acid] gave a Ki of 0.05 mM.

With `CC[C@H](C)C[C@H](N)C(=O)O` [(2S,4S)-2-amino-4-methylhexanoic acid], the affinity corresponds to a Ki of 2 mM.

For `CC(C)[C@@H](C)C(N)C(=O)O` (stereo partly drawn) [(3R)-2-amino-3,4-dimethylpentanoic acid], the Ki was found to be 3.33 mM.

The compound `CCCC[C@@H](C)C(N)C(=O)O` (stereo partly drawn) [(3R)-2-amino-3-methylheptanoic acid] gave a Ki of 16.7 mM.

The compound `CCC[C@@H](C)C(N)C(=O)O` (stereo partly drawn) [(3R)-2-amino-3-methylhexanoic acid] yielded a Ki of 1.67 mM.

`CCC[C@H](CC)C(N)C(=O)O` (stereo partly drawn) [(3S)-2-amino-3-ethylhexanoic acid]: the Ki was determined as 5 mM.

Compound `CCCC[C@H](C)C(N)C(=O)O` (stereo partly drawn) [(3S)-2-amino-3-methylheptanoic acid] displayed an inhibition constant Ki of 2.5 mM. Compared with the last compound, the Ki is about 2-fold lower.

In turn, `CCC[C@H](C)C(N)C(=O)O` (stereo partly drawn) [(3S)-2-amino-3-methylhexanoic acid] registered a Ki of 0.0588 mM.
